Results from patent US12291518B2, “Thyroid hormone receptor agonists and use thereof” (Eccogene Inc., priority 2020, dated 2025).

How the values were obtained:
THR beta-LBD = target: T1, THR beta-LBD (Homo sapiens, UniProt P10828); assay: THR-β Coactivator Peptide Recruitment Assay (LanthaScreen TR-FRET); format: biochemical; details: TR-FRET coactivator recruitment, THR beta-LBD 0.5 nM; for EC50: read-out: THRβ EC50
T1 construct: THR beta-LBD (the final concentration is 0.5 nM) was added to the 384-well assay plate; purchased Invitrogen PV4686
T1 sequence (P10828 217-461 limits assumed): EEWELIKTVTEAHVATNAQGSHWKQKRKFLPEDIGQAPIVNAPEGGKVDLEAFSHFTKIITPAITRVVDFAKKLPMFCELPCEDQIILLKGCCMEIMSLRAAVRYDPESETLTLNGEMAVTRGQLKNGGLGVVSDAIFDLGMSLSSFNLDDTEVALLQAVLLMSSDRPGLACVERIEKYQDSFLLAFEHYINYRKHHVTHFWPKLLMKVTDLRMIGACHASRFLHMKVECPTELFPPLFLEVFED
Method in brief: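 GST-tagged THR beta-LBD (0.5 nM) with test compound recruits fluorescein-SRC2-2 coactivator peptide (0.1 nM), detected with Tb-anti-GST antibody (2 nM).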

THR alpha-LBD = target: T2, THR alpha-LBD (Homo sapiens, UniProt P10827); assay: THR-α Coactivator Peptide Recruitment Assay (LanthaScreen TR-FRET); format: biochemical; details: TR-FRET coactivator recruitment, THR alpha-LBD 0.25 nM; for EC50: read-out: THRα EC50
T2 construct: except that THR alpha-LBD of a final concentration 0.25 nM was used; purchased Invitrogen PV4687
T2 sequence (P10827 163-410 isoform P10827-2 limits assumed, other chains not shown): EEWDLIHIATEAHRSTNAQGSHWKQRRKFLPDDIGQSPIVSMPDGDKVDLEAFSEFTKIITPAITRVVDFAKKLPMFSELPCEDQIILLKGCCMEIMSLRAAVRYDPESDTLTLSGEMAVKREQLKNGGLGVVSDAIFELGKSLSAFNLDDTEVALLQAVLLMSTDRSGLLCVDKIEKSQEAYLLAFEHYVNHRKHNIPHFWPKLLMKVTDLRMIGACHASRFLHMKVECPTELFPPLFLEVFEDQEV
Method in brief: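 TR-FRET coactivator recruitment with THR alpha-LBD at 0.25 nM final, Fluorescein-SRC2-2 peptide 0.1 nM and Tb-labeled anti-GST antibody 2 nM; 2 h incubation at room temperature. 520/495 nm emission ratio fitted to a four-parameter sigmoidal curve to give EC50.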

| SMILES | THRβ Emax (THR beta-LBD) | EC50 (THR beta-LBD) [nM] | THRα Emax (THR alpha-LBD) | EC50 (THR alpha-LBD) [nM] |
| --- | --- | --- | --- | --- |
| N#C[C@H]1C[C@H](NS(=O)(=O)c2cc(Oc3c(Cl)cc(-n4nc(C(F)F)c(=O)[nH]c4=O)cc3Cl)ncc2O)C1 [Compound 130, N-(3-cyanocyclobutyl)-2-[2,6-dichloro-4-[6-(difluoromethyl)-3,5-dioxo-1,2,4-triazin-2-yl]phenoxy]-5-hydroxy-pyridine-4-sulfonamide] | B (75~90) | 2 to 20 | B (40~85) | 200 to 1000 |
| O=c1[nH]c(=O)n(-c2cc(Cl)c(Oc3cc(S(=O)(=O)NC4CC4)c(O)cn3)c(Cl)c2)nc1C(F)F [Compound 131, N-cyclopropyl-2-(2,6-dichloro-4-(6-(difluoromethyl)-3,5-dioxo-4,5-dihydro-1,2,4-triazin-2(3H)-yl)phenoxy)-5-hydroxypyridine-4-sulfonamide] | A (90~110) | < 2 | A (85~110) | 2 to 200 |
| O=c1[nH]c(=O)n(-c2cc(Cl)c(Oc3cc(S(=O)(=O)N[C@H]4C[C@@H](O)C4)c(O)cn3)c(Cl)c2)nc1C(F)F [Compound 132, 2-(2,6-dichloro-4-(6-(difluoromethyl)-3,5-dioxo-4,5-dihydro-1,2,4-triazin-2(3H)-yl)phenoxy)-5-hydroxy-N-((1s,3s)-3-hydroxycyclobutyl)pyridine-4-sulfonamide] | A (90~110) | 2 to 20 | B (40~85) | 200 to 1000 |
| O=c1[nH]c(=O)n(-c2cc(Cl)c(Oc3cc(S(=O)(=O)NC[C@H]4C[C@H](O)C4)c(O)cn3)c(Cl)c2)nc1C(F)F [Compound 133, 2-(2,6-dichloro-4-(6-(difluoromethyl)-3,5-dioxo-4,5-dihydro-1,2,4-triazin-2(3H)-yl)phenoxy)-5-hydroxy-N-(((1r,3r)-3-hydroxycyclobutyl)methyl)pyridine-4-sulfonamide] | B (75~90) | 20 to 100 | B (40~85) | > 1000 |
| O=c1[nH]c(=O)n(-c2cc(Cl)c(Oc3cc(S(=O)(=O)NC[C@H]4C[C@@H](O)C4)c(O)cn3)c(Cl)c2)nc1C(F)F [Compound 134, 2-(2,6-dichloro-4-(6-(difluoromethyl)-3,5-dioxo-4,5-dihydro-1,2,4-triazin-2(3H)-yl)phenoxy)-5-hydroxy-N-(((1s,3s)-3-hydroxycyclobutyl)methyl)pyridine-4-sulfonamide] | B (75~90) | 20 to 100 | B (40~85) | > 1000 |
| N#CC1(NS(=O)(=O)c2cc(Oc3c(Cl)cc(-n4nc(C(F)F)c(=O)[nH]c4=O)cc3Cl)ncc2O)CC1 [Compound 135, N-(1-cyanocyclopropyl)-2-(2,6-dichloro-4-(6-(difluoromethyl)-3,5-dioxo-4,5-dihydro-1,2,4-triazin-2(3H)-yl)phenoxy)-5-hydroxypyridine-4-sulfonamide] | A (90~110) | 2 to 20 | A (85~110) | 2 to 200 |
| O=c1[nH]c(=O)n(-c2cc(Cl)c(Oc3cc(S(=O)(=O)NC4CCOCC4)c(O)cn3)c(Cl)c2)nc1C(F)F [Compound 136, 2-(2,6-dichloro-4-(6-(difluoromethyl)-3,5-dioxo-4,5-dihydro-1,2,4-triazin-2(3H)-yl)phenoxy)-5-hydroxy-N-(tetrahydro-2H-pyran-4-yl)pyridine-4-sulfonamide] | B (75~90) | 2 to 20 | B (40~85) | 2 to 200 |
| CC(C)(O)CNS(=O)(=O)c1cc(Oc2c(Cl)cc(-n3nc(C(F)F)c(=O)[nH]c3=O)cc2Cl)ncc1O [Compound 137, 2-(2,6-dichloro-4-(6-(difluoromethyl)-3,5-dioxo-4,5-dihydro-1,2,4-triazin-2(3H)-yl)phenoxy)-5-hydroxy-N-(2-hydroxy-2-methylpropyl)pyridine-4-sulfonamide] | C (<75) | 20 to 100 | B (40~85) | > 1000 |
| C[C@]1(O)C[C@@H](NS(=O)(=O)c2cc(Oc3c(Cl)cc(-n4nc(C(F)F)c(=O)[nH]c4=O)cc3Cl)ncc2O)C1 [Compound 138, 2-(2,6-dichloro-4-(6-(difluoromethyl)-3,5-dioxo-4,5-dihydro-1,2,4-triazin-2(3H)-yl)phenoxy)-5-hydroxy-N-((1s,3s)-3-hydroxy-3-methylcyclobutyl)pyridine-4-sulfonamide] | C (<75) | > 100 | C (<40) | > 1000 |
| CO[C@H]1C[C@H](NS(=O)(=O)c2cc(Oc3c(Cl)cc(-n4nc(C(F)F)c(=O)[nH]c4=O)cc3Cl)ncc2O)C1 [Compound 139, 2-(2,6-dichloro-4-(6-(difluoromethyl)-3,5-dioxo-4,5-dihydro-1,2,4-triazin-2(3H)-yl)phenoxy)-5-hydroxy-N-((1r,3r)-3-methoxycyclobutyl)pyridine-4-sulfonamide] | B (75~90) | 2 to 20 | B (40~85) | 200 to 1000 |
| CO[C@H]1C[C@@H](NS(=O)(=O)c2cc(Oc3c(Cl)cc(-n4nc(C(F)F)c(=O)[nH]c4=O)cc3Cl)ncc2O)C1 [Compound 140, 2-(2,6-dichloro-4-(6-(difluoromethyl)-3,5-dioxo-4,5-dihydro-1,2,4-triazin-2(3H)-yl)phenoxy)-5-hydroxy-N-((1s,3s)-3-methoxycyclobutyl)pyridine-4-sulfonamide] | B (75~90) | 20 to 100 | B (40~85) | 200 to 1000 |
| O=c1[nH]c(=O)n(-c2cc(Cl)c(Oc3cc(S(=O)(=O)N4CC[C@@H](O)C4)c(O)cn3)c(Cl)c2)nc1C(F)F [Compound 141, (R)-2-(3,5-dichloro-4-((5-hydroxy-4-((3-hydroxypyrrolidin-1-yl)sulfonyl)pyridin-2-yl)oxy)phenyl)-6-(difluoromethyl)-1,2,4-triazine-3,5(2H,4H)-dione] | B (75~90) | 2 to 20 | B (40~85) | 2 to 200 |
| O=c1[nH]c(=O)n(-c2cc(Cl)c(Oc3cc(S(=O)(=O)NC45CC(O)(C4)C5)c(O)cn3)c(Cl)c2)nc1C(F)F [Compound 142, 2-(2,6-dichloro-4-(6-(difluoromethyl)-3,5-dioxo-4,5-dihydro-1,2,4-triazin-2(3H)-yl)phenoxy)-5-hydroxy-N-(3-hydroxybicyclo[1.1.1]pentan-1-yl)pyridine-4-sulfonamide] | B (75~90) | 20 to 100 | B (40~85) | 200 to 1000 |

Continued, values first:

| THRβ Emax (THR beta-LBD) | EC50 (THR beta-LBD) [nM] | THRα Emax (THR alpha-LBD) | EC50 (THR alpha-LBD) [nM] | SMILES |
| --- | --- | --- | --- | --- |
| B (75~90) | 2 to 20 | B (40~85) | 200 to 1000 | O=c1[nH]c(=O)n(-c2cc(Cl)c(Oc3cc(S(=O)(=O)N[C@H]4CC[C@H](O)CC4)c(O)cn3)c(Cl)c2)nc1C(F)F [Compound 143, 2-(2,6-dichloro-4-(6-(difluoromethyl)-3,5-dioxo-4,5-dihydro-1,2,4-triazin-2(3H)-yl)phenoxy)-5-hydroxy-N-((1r,4r)-4-hydroxycyclohexyl)pyridine-4-sulfonamide] |
| C (<75) | 20 to 100 | C (<40) | > 1000 | O=c1[nH]c(=O)n(-c2cc(Cl)c(Oc3cc(S(=O)(=O)N[C@H]4CC[C@@H](O)CC4)c(O)cn3)c(Cl)c2)nc1C(F)F [Compound 144, 2-(2,6-dichloro-4-(6-(difluoromethyl)-3,5-dioxo-4,5-dihydro-1,2,4-triazin-2(3H)-yl)phenoxy)-5-hydroxy-N-((1s,4s)-4-hydroxycyclohexyl)pyridine-4-sulfonamide] |
| B (75~90) | 2 to 20 | B (40~85) | 2 to 200 | O=C(NC1CCC1)c1cc(Oc2c(Cl)cc(-n3nc(C(F)F)c(=O)[nH]c3=O)cc2Cl)ncc1O [Compound 145, N-cyclobutyl-2-[2,6-dichloro-4-[6-(difluoromethyl)-3,5-dioxo-1,2,4-triazin-2-yl]phenoxy]-5-hydroxy-pyridine-4-carboxamide] |
| A (90~110) | 2 to 20 | A (85~110) | 2 to 200 | CS(=O)(=O)c1cc(Oc2c(Cl)cc(-n3nc(C(F)F)c(=O)[nH]c3=O)cc2Cl)ncc1O [Compound 146, 2-[3,5-dichloro-4-[(5-hydroxy-4-methylsulfonyl-2-pyridyl)oxy]phenyl]-6-(difluoromethyl)-1,2,4-triazine-3,5-dione] |
| A (90~110) | 20 to 100 | B (40~85) | 200 to 1000 | CS(=O)(=O)c1cc(Oc2c(Cl)cc(-n3nc(C#N)c(=O)[nH]c3=O)cc2Cl)ncc1O [Compound 147, 2-[3,5-dichloro-4-[(5-hydroxy-4-methylsulfonyl-2-pyridyl)oxy]phenyl]-3,5-dioxo-1,2,4-triazine-6-carbonitrile] |
| B (75~90) | 2 to 20 | A (85~110) | 2 to 200 | O=c1[nH]c(=O)n(-c2cc(Cl)c(Oc3cc(S(=O)(=O)NC4CS(=O)(=O)C4)c(O)cn3)c(Cl)c2)nc1C(F)F [Compound 148, 2-[2,6-dichloro-4-[6-(difluoromethyl)-3,5-dioxo-1,2,4-triazin-2-yl]-phenoxy]-N-(1,1-dioxothietan-3-yl)-5-hydroxy-pyridine-4-sulfonamide] |
